Measurements reported in publication PMC5417501, “Occurrence of urea-based soluble epoxide hydrolase inhibitors from the plants in the order Brassicales” (PLoS ONE, 2017).
In brackets after ≈: the same amount, converted by molar mass. Several values for one entry are separate records, joined by “and”; a condition that tells them apart may be missing. Identical values can stand only once. Entries after “also recorded” stand apart in the source; their conditions may differ. Like-named read-outs stand apart in the source and are kept apart here.

Key:
[1] = Overnight incubation of thiourea in water at room temperature without papaya seed; assay type: physicochemical; conditions: 10 μM in water
rat sEH [2] = molecular target: T1, rat sEH (Rattus norvegicus, UniProt P80299); assay: sEH inhibition by fluorescent assay (CMNPC assay), rat enzyme; assay type: biochemical; conditions: for IC50: CMNPC substrate, recombinant enzyme
T1 construct: made in house; host or cells: insect High Five cells (recombinant baculovirus)
T1 sequence (P80299 1-554): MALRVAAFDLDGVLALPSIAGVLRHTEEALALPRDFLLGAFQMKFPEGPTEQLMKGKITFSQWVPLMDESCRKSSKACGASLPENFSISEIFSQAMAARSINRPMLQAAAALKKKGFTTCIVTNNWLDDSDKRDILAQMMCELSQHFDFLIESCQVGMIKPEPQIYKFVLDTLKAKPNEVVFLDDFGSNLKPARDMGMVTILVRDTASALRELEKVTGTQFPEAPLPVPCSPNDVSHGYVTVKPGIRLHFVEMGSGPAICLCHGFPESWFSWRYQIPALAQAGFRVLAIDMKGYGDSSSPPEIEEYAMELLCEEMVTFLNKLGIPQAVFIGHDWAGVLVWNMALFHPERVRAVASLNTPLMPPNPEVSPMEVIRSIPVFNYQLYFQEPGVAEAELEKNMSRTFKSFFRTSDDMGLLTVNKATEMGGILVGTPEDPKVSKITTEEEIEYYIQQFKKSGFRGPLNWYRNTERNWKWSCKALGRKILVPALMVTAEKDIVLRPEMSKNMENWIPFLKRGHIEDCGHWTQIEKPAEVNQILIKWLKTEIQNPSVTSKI
Method: (§1) Recombinant sEH was produced in insect High Five cells using recombinant baculovirus expression vectors, and purified by affinity chromatography as reported previously. The enzyme appeared as a single band (0.3 μg loading) with an estimated purity of more than 95% by Coomassie Brilliant Blue staining following SDS-PAGE separation. The final recombinant sEH preparations had no esterase or glutathione S-transferase activities, which interfere with the CMNPC assay as described below.
(§2) IC50 values were determined as described previously using cyano (2-methoxynaphthalen-6-yl) methyl trans-(3-phenyl-oxyran-2-yl) methyl carbonate (CMNPC) as a fluorescent substrate. Recombinant sEH (0.96 nM) was incubated with inhibitors for 5 min in 25 mM bis-Tris/HCl buffer (pH 7.0) containing 0.1 mg/mL of BSA at 30°C prior to substrate introduction ([S] = 5 μM). Activity was measured by determining the appearance of the 6-methoxy-2-naphthaldehyde with an excitation wavelength of 330 nm and an emission wavelength of 465 nm for 10 min.

human sEH = molecular target: T2, human sEH (Homo sapiens, UniProt P34913); assay: sEH inhibition by fluorescent assay (CMNPC assay), human enzyme; assay type: biochemical
T2 construct: made in house; host or cells: insect High Five cells (recombinant baculovirus)
T2 sequence (P34913 1-555): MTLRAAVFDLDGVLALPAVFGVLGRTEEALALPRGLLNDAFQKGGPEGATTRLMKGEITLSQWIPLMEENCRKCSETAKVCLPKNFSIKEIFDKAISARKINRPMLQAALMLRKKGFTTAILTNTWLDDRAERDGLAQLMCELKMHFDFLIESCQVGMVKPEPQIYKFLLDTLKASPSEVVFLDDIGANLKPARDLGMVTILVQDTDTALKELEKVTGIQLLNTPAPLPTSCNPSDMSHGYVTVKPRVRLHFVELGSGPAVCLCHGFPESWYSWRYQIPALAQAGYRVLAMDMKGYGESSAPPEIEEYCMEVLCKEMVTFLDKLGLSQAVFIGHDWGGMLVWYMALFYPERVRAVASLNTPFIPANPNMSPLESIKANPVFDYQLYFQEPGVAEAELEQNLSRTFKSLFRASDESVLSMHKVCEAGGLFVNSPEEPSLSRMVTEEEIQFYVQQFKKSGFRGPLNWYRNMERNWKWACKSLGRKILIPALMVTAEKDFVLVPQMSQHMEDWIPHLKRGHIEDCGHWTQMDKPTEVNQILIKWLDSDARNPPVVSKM
Method: as §1, §2

Solubility = assay type: physicochemical
[3] = tested on: carrageenan-induced inflammatory pain; assay: Nociceptive assay, carrageenan-induced inflammatory pain model, topical application; assay type: in vivo; conditions: rat, 6 mg/paw in PEG400/Vanicream, monitored 4 h, p ≤ 0.001
Method: (§3) Male Sprague-Dawley rats weighing 225–250 g were obtained from Charles River Laboratories and maintained in the UC Davis animal housing facility with ad libitum water and food on a 12 h/12 h light-dark cycle. Behavioral nociceptive testing was conducted by assessing mechanical withdrawal threshold using an electronic von Frey anesthesiometer apparatus (IITC, Woodland Hills, CA) as described previously. The analgesic effect of compound 3 was tested using the intraplantar carrageenan-induced local inflammatory pain model. Following baseline measurements, carrageenan (50 μL, 1% solution of carrageenan in ddH2O) was administered into the plantar area of one hind paw. At 4 h post administration of carrageenan, responses were measured, and immediately after these measurement, 3 (3% in PEG400/Vanicream™ (Pharmaceutical Specialties, Inc. Rochester, MN) = 3:7, 6 mg of compound/paw), the synthetic sEH inhibitor triclocarban (TCC, 3%), or the vehicle (200 μL of PEG400/Vanicream™) was administered onto the inflamed paw by topical application. The cream was thoroughly massaged across the entire hind paw surface over a 1–2 min period. Subsequently, the ability of these treatments to reduce the carrageenan-induced inflammatory pain was monitored over the course of 4 h.
Data were analyzed using SigmaPlot 11.0 for Windows (Systat Software Inc., San Jose, CA). […]

[4] = Blood concentration during the pain assay after dermal treatment; assay type: in vivo; conditions: rat; for Concentration of demethoxy metabolite: after dermal treatment of compound 3 (6 mg/paw)
Method: as §3
(§4) Pharmacokinetic profiles of the inhibitors were determined by following the procedure described previously in literature with some modifications. Male Swiss Webster mice (7 weeks old, 24–30 g) were purchased from Charles River Laboratories. Inhibitors were dissolved in polyethylene glycol (average molecular weight: 300) to give a clear solution for oral administration. […] Blood (10 μL) was collected from the tail vein using a pipet tip rinsed with EDTA. The blood samples were prepared according to the methods detailed previously, and blood samples were analyzed by LC-MS/MS.

[5] = Pharmacokinetics after oral gavage (cassette dosing); assay type: in vivo; conditions: mice; for oral availability, comparison: gavage, compound 3 and AEPU 10 mg/kg, TPPU 0.3 mg/kg; for blood level of demethoxy metabolite after oral compound 3: compound 3 10 mg/kg oral, LOQ < 9.8 nM in blood
Method: as §4

[6] = tested on: carrageenan-induced inflammatory pain; assay: Carrageenan-induced inflammatory pain model, intraplantar administration; assay type: in vivo; conditions: rat, 10 µg/paw, p<0.05 vs. vehicle
Method: S8 Fig. Intraplantar administration of compound 3 effectively reduces carrageenan-induced inflammatory pain in rat. Administration of the inflammatory agent carrageenan (CAR) induces a stable hyperalgesic response for the duration of the experiment. Treatment with 3 (▲, 10 µg/paw, intraplantar), morphine (●, 10 µg/paw, intraplantar) or the potent synthetic sEH inhibitor (1-(1-(Cyclopropanecarbonyl) piperidin-4-yl)-3-(4- […]
pain levels (Kruskal-Wallis One Way ANOVA on Ranks, p≤0.001, Tukey’s post hoc test (compound 3 vs. vehicle, morphine vs. vehicle, TPCU vs. vehicle, p<0.05). Mean ± SE (n=6) of mechanical withdrawal threshold (% of naïve baseline) are shown. Vehicle (○), morphine (●), and TPCU (△) treatment data are from Rose et al., (2010).
(1 picture or pasted object on this page, not shown here)

[7] = value marked with footnote c, text of footnote not shown; cited from earlier work
rat sEH [8] = molecular target: T1, rat sEH; design: method as in PMID 21381656; conditions: value marked with footnote e; cited from earlier work
[9] = tested on: carrageenan-induced inflammatory pain; design: method as in Rose et al., (2010); conditions: rat, intraplantar, morphine 10 µg/paw, TPCU 10 ng/paw; ref Rose et al., (2010); cited from earlier work
[10] = CMNPC substrate, recombinant enzyme, read-out: Human sEH IC50
[11] = S2 Table, unit inferred, read-out: hsEH IC50

In the case of S=C(NCc1ccccc1)NCc1ccccc1 [1,3-dibenzylthiourea], the “converted into compound 1” value [1] is reported as “Approximately 10%”.

In the case of COc1ccc(CNC(=O)NCc2ccccc2)cc1 [BMU, reference compound], the IC50 (rat sEH [2]) is reported as 0.182 µM.

Work on O=C(NCc1ccccc1)NCc1ccccc1 [Compound 1, 1,3-Dibenzylurea] yielded an IC50 (rat sEH [2]) of 0.385 µM.

In the case of COc1cccc(CNC(=O)NCc2ccccc2)c1 [Compound 2, 1-Benzyl-3-(3-methoxybenzyl) urea], the “lower potency on human sEH than compound 3” value (human sEH) is reported as “approximately 2 fold”, the IC50 (human sEH; [10]) is reported as 0.534 µM and the IC50 (rat sEH [2]) is reported as 0.308 µM.

In the case of COc1cccc(CNC(=O)NCc2cccc(OC)c2)c1 [Compound 3, 1,3-Bis (3-methoxybenzyl) urea], the IC50 (human sEH; [10]) is reported as 0.222 µM and ~0.2 µM, the “less potent than MMU” value (human sEH; human sEH) is reported as “approximately 2 fold” and the IC50 (rat sEH [2]) is reported as 0.155 µM. For the same compound, the “solubility higher than MMU” value (Solubility) was “approximately 10 fold”, the “carrageenan induced inflammatory pain (mechanical withdrawal threshold)” value [3] was “significantly reduced carrageenan induced inflammatory pain; also recorded: significantly reduced pain levels” and the concentration at 4 h ([4]; male, Sprague-Dawley, whole blood, topical, dermal 6 mg/paw, after 4 hours) was > 3000 nM. The “blood concentration at peak” value ([4]; dermal 6 mg/paw, at 30 min) was “higher than 40 μM”, the permeability through skin ([4]; dermal 6 mg/paw, concluded from blood concentration) was “high permeability through skin” and the “absorption following oral administration” value ([5]; 10 mg/kg by gavage in PEG300) was “rapidly absorbed”. The “oral availability, comparison” value [5] was “higher than that of AEPU”, the “portion of compound 3 metabolized into compound 6” value ([5]; oral 10 mg/kg, based on area under the curve values) was “approximately 66%” and the “carrageenan-induced inflammatory pain (mechanical withdrawal threshold)” value (“carrageenan-induced inflammatory pain” below) [6] was “significantly reduced”.

In the case of COc1cccc(CNC(=O)NCc2cccc(O)c2)c1 [Compound 6, 1-(3-Hydroxybenzyl)-3-(3-methoxybenzyl) urea], the IC50 (human sEH; read-out: human sEH IC50) is reported as 1.3 µM, the IC50 (rat sEH [2]) is reported as 1.3 µM and the “Concentration of demethoxy metabolite” value [4] is reported as “below 200 nM”. For the same compound, the “blood level of demethoxy metabolite after oral compound 3” value [5] was “detected at similar concentrations to compound 3”.

For O=C(NCc1cccc(O)c1)NCc1cccc(O)c1 [Compound 7, 1,3-Bis(3-hydroxybenzyl)urea], the IC50 (human sEH; [11]) was 2.7 µM, the IC50 (rat sEH [2]) was 9.6 µM and the “Concentration of demethoxy metabolite” value [4] was “below 200 nM”. For the same compound, the “blood level of demethoxy metabolite after oral compound 3” value [5] was “not detected”.

For O=C(NCCc1ccccc1)NCCc1ccccc1 [Compound 8, 1,3-Diphenethylurea], the “sEH inhibitory potency in words” value (human sEH) was “moderate sEH inhibitory potency”, the IC50 (human sEH; [11]) was 0.233 µM and the IC50 (rat sEH [2]) was 0.071 µM. The solubility (Solubility) was 33 ± 11 µM (≈ 8.86 µg/mL).

S=C(NCCc1ccccc1)NCCc1ccccc1 [Compound 9, 1,3-Diphenethylthiourea] showed an IC50 (human sEH; [10]) of 2.4 µM, an IC50 (human sEH; [11]) of 0.134 µM and an IC50 (rat sEH [2]) of 3.3 µM.

For O=C(NCCc1ccccc1)NCCc1ccc(O)cc1 [Compound 10, 1-(4-Hydroxyphenethyl)-3-phenethylurea], the “sEH inhibitory potency in words” value (human sEH) was “slightly higher inhibitory potency on sEH than the parent”, the IC50 (human sEH; [10]) was 0.134 µM and the IC50 (human sEH; [11]) was 0.0716 µM. It also gave an IC50 (rat sEH [2]) of 0.129 µM.

In the case of COc1ccc(CNC(=O)NCc2ccc(OC)cc2)cc1 [MMU, reference compound], the IC50 (rat sEH [2]) is given as 0.218 µM and the solubility [7] is given as 11 ± 2 µM (≈ 3.3 µg/mL).

With O=S(=O)(O)ON=C(CCc1ccccc1)SC1OC(CO)C(O)C(O)C1O (stereo not shown) [Phenethyl glucosinolate, reference compound] the IC50 (human sEH; [10]) was > 10 µM and the IC50 (rat sEH [2]) was > 10 µM.

With S=C=NCCc1ccccc1 [Phenethyl isothiocyanate, reference compound] the IC50 (human sEH; [10]) was > 10 µM and the IC50 (rat sEH [2]) was > 10 µM.

For O=C(Nc1ccc(Cl)cc1)Nc1ccc(Cl)c(Cl)c1 [TCC, triclocarban, reference compound], the “more potent than compound 3 on rat sEH” value (rat sEH [2]) is given as “approximately 6 fold”, the “carrageenan induced inflammatory pain (mechanical withdrawal threshold)” value [3] is given as “significantly reduced carrageenan induced inflammatory pain; also recorded: significantly reduced pain levels” and the IC50 (rat sEH [8]) is given as 0.027 µM.

In the case of O=C(Nc1ccc(OC(F)(F)F)cc1)NC1CCN(C(=O)C2CC2)CC1 [TPCU, 1-(1-(Cyclopropanecarbonyl)piperidin-4-yl)-3-(4-(trifluoromethoxy)phenyl) urea], the “carrageenan-induced inflammatory pain” value [9] is listed as “significantly reduced”.

For CCC(=O)N1CCC(NC(=O)Nc2ccc(OC(F)(F)F)cc2)CC1 [TPPU, 1-trifluoromethoxyphenyl-3-(1-propionylpiperidin-4-yl) urea, reference compound], the “oral availability, comparison” value [5] was “much higher bioavailability than compound 3”.

In the case of CN1CC[C@]23c4c5ccc(O)c4O[C@H]2[C@@H](O)C=C[C@H]3[C@H]1C5 [morphine], the “carrageenan-induced inflammatory pain” value [9] is listed as “significantly reduced”.
